The structures appear in SMILES notation.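 Each compound was tested at five concentrations against cells in 96-well plates for 48 hours. Here, GI50 denotes the concentration required for 50% inhibition of growth. TGI marks complete inhibition of growth.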

Test systems include UACC-257 melanoma; SF-295 CNS; MDA-MB-435; HL-60(TB) leukemia; HT29 colon; IGROV1 ovarian; HOP-62 NSCLC; HCT-15 colon; MCF7 breast; RXF 393 renal.
What all share (assay): NCI anticancer screen, dose series, 48 h

In the case of `COc1ccccc1CNCCCN1C(=O)c2ccc3c4c(ccc(c24)C1=O)C(=O)N(CCCN)C3=O`, the GI50 is 0.74 µM with UACC-257 melanoma; 1.31 µM in the test with SF-295 CNS; 0.196 µM with MDA-MB-435; 0.826 µM in the test with HL-60(TB) leukemia; 1.42 µM with HT29 colon; 1.35 µM in the test on IGROV1 ovarian. For the same compound, the GI50 with HOP-62 NSCLC was 1.42 µM; in the test with HCT-15 colon, 1.41 µM; in the test on MCF7 breast it was 0.329 µM; in the test with RXF 393 renal, 0.628 µM. Also, the TGI was 2.27 µM with UACC-257 melanoma; 2.81 µM in the test on SF-295 CNS; 0.413 µM with MDA-MB-435; 2.54 µM in the test with HL-60(TB) leukemia; 3.75 µM in the test on HT29 colon; 3.48 µM with IGROV1 ovarian. Moreover, the TGI with HOP-62 NSCLC was determined as 2.95 µM; in the test with HCT-15 colon it was 3.67 µM; with MCF7 breast, 1.6 µM; with RXF 393 renal, 1.83 µM.

Take `COC(=O)c1cc2ccccc2c2c3c(ccc12)OCO3`: the GI50 in the test with UACC-257 melanoma was 199 µM; in the test with SF-295 CNS it was 99.8 µM; in the test on MDA-MB-435, 531 µM; with HT29 colon it was 33.7 µM; in the test on IGROV1 ovarian, 90.7 µM; in the test with HOP-62 NSCLC, 26.2 µM. In addition, the GI50 is 137 µM in the test with HCT-15 colon, 306 µM in the test with MCF7 breast and 14.8 µM in the test with RXF 393 renal. Further, the TGI in the test on UACC-257 melanoma is over 1000 µM; with SF-295 CNS, 548 µM; in the test on MDA-MB-435 it was over 1000 µM; in the test on HL-60(TB) leukemia, over 1000 µM; in the test on HT29 colon, over 1000 µM; in the test with IGROV1 ovarian, over 1000 µM. In addition, the TGI in the test on HOP-62 NSCLC is 91.7 µM; in the test with HCT-15 colon, over 1000 µM; with MCF7 breast, over 1000 µM; with RXF 393 renal, 89.5 µM.

Take `O=[N+]([O-])c1ccc(N=Nc2ccc(O)c3ccccc23)cc1`: the GI50 with UACC-257 melanoma was 3.6 µM; with SF-295 CNS, 9.89 µM; with MDA-MB-435, 5.31 µM; with HL-60(TB) leukemia it was 5.39 µM; with HT29 colon it was 13.7 µM; in the test on IGROV1 ovarian, 5.27 µM. For the same compound, the GI50 was 20.3 µM in the test on HOP-62 NSCLC, 3.29 µM in the test with HCT-15 colon, 2.42 µM with MCF7 breast and 4.87 µM with RXF 393 renal. Also, the TGI with UACC-257 melanoma is 14.6 µM; in the test on SF-295 CNS it was over 100 µM; with MDA-MB-435, 19.1 µM; in the test with HL-60(TB) leukemia it was 21 µM; with HT29 colon, over 100 µM; in the test with IGROV1 ovarian, over 100 µM. The TGI in the test with HOP-62 NSCLC is over 100 µM; in the test on HCT-15 colon it was over 100 µM; with MCF7 breast, over 100 µM; in the test with RXF 393 renal it was 39.4 µM.

Regarding `COc1ccc(C2=C(c3ccc(OC)c(OC)c3)C(=O)N3CCCC3C2)cc1` (centres undefined), the GI50 was 62.3 µM in the test with UACC-257 melanoma; 29.2 µM with SF-295 CNS; 25.7 µM in the test with MDA-MB-435; 4.26 µM in the test on HL-60(TB) leukemia; 13.6 µM in the test with HT29 colon; 13.3 µM with IGROV1 ovarian. Further, the GI50 in the test with HOP-62 NSCLC is 14.7 µM; with HCT-15 colon it was 5.18 µM; with MCF7 breast, 31.8 µM; in the test with RXF 393 renal, 11.5 µM. For the same compound, the TGI is over 100 µM with UACC-257 melanoma; over 100 µM in the test with SF-295 CNS; over 100 µM in the test with MDA-MB-435; 22.7 µM in the test on HL-60(TB) leukemia; over 100 µM in the test with HT29 colon; over 100 µM with IGROV1 ovarian. For the same compound, the TGI is over 100 µM in the test with HOP-62 NSCLC, over 100 µM in the test with HCT-15 colon, over 100 µM in the test on MCF7 breast and over 38.2 µM in the test with RXF 393 renal.

As for `COc1ccc(CC(=O)c2ccc(O)cc2O)cc1`, the GI50 in the test on UACC-257 melanoma was over 100 µM; in the test on SF-295 CNS it was 46.2 µM; with MDA-MB-435 it was over 100 µM; in the test on HL-60(TB) leukemia, 40.9 µM; with HT29 colon it was over 100 µM; with IGROV1 ovarian, 53.4 µM. Further, the GI50 in the test on HOP-62 NSCLC, with HCT-15 colon, in the test with MCF7 breast and with RXF 393 renal was over 100 µM in each case. Besides, the TGI in the test on UACC-257 melanoma, in the test with SF-295 CNS, in the test on MDA-MB-435, with HL-60(TB) leukemia, with HT29 colon and in the test with IGROV1 ovarian was over 100 µM throughout. The TGI in the test with HOP-62 NSCLC, with HCT-15 colon, in the test on MCF7 breast and in the test on RXF 393 renal was over 100 µM throughout.

Turning to `Nc1c(C(=O)c2cccc(C#CCO)c2)cnn1-c1ccc(F)cc1`, the GI50 in the test on UACC-257 melanoma, with SF-295 CNS, in the test on MDA-MB-435, with HL-60(TB) leukemia, in the test with HT29 colon and in the test with IGROV1 ovarian was over 25 µM each time. Besides, the GI50 with HOP-62 NSCLC, in the test with HCT-15 colon, in the test with MCF7 breast and with RXF 393 renal was over 25 µM in each case. The TGI in the test on UACC-257 melanoma, in the test on SF-295 CNS, in the test with MDA-MB-435, in the test on HL-60(TB) leukemia, with HT29 colon and in the test with IGROV1 ovarian was over 25 µM in each case. The TGI in the test on HOP-62 NSCLC, in the test on HCT-15 colon, with MCF7 breast and in the test on RXF 393 renal was over 25 µM throughout.

For the compound `CC[C@H](CO)Nc1nc(NCc2ccccc2)c2ncn(C(C)C)c2n1`, the TGI in the test with UACC-257 melanoma is 98.7 µM; with SF-295 CNS, over 79.6 µM; in the test with MDA-MB-435, over 73.6 µM; with HL-60(TB) leukemia, over 79.9 µM; with HT29 colon it was over 100 µM; in the test with IGROV1 ovarian it was over 86.2 µM. The TGI with HOP-62 NSCLC is over 94 µM; in the test with HCT-15 colon it was over 81.6 µM; with MCF7 breast it was over 81.5 µM; in the test with RXF 393 renal, over 52.4 µM. The GI50 with SF-295 CNS is 21.8 µM; with MDA-MB-435 it was 20.1 µM; in the test on HT29 colon it was 24.3 µM; in the test with IGROV1 ovarian it was 11.9 µM; in the test on HOP-62 NSCLC it was 29.4 µM.

As for `COC(=N)c1c(N)[n+]([O-])c2ccc(F)cc2[n+]1[O-]`, the GI50 with UACC-257 melanoma was over 100 µM; with SF-295 CNS it was over 100 µM; with MDA-MB-435, over 100 µM; in the test on HL-60(TB) leukemia it was over 100 µM; in the test on HT29 colon it was over 100 µM; in the test with IGROV1 ovarian, 18.1 µM. In addition, the GI50 in the test on HOP-62 NSCLC was over 100 µM; in the test on HCT-15 colon, over 100 µM; in the test with MCF7 breast, 76.4 µM; with RXF 393 renal it was over 100 µM. In addition, the TGI in the test on UACC-257 melanoma was over 100 µM; in the test on SF-295 CNS, over 100 µM; in the test with MDA-MB-435, over 100 µM; in the test with HL-60(TB) leukemia it was over 100 µM; in the test on HT29 colon, over 100 µM; with IGROV1 ovarian, 86.5 µM. Also, the TGI in the test on HOP-62 NSCLC, in the test with HCT-15 colon, in the test on MCF7 breast and in the test with RXF 393 renal was over 100 µM in each case.

For the compound `O=[N+]([O-])c1ccc(N2CCC(CCCC3CCN(c4ccc([N+](=O)[O-])cc4[N+](=O)[O-])CC3)CC2)c([N+](=O)[O-])c1`, the TGI in the test with UACC-257 melanoma was 28.9 µM; in the test on SF-295 CNS it was 32.3 µM; with MDA-MB-435, 26.8 µM; in the test with HL-60(TB) leukemia, 35.9 µM; in the test on HT29 colon, 22.2 µM; in the test on IGROV1 ovarian it was 25.3 µM. Moreover, the TGI worked out at 29.5 µM in the test on HOP-62 NSCLC, 41.6 µM with HCT-15 colon, 28.3 µM in the test with MCF7 breast and 35.4 µM in the test with RXF 393 renal.

As for `COC(=O)Nc1nc2ccc(Oc3cccc(NC(=O)Nc4cc(C(F)(F)F)ccc4F)c3)cc2[nH]1`, the GI50 in the test on UACC-257 melanoma was over 23.7 µM; in the test on SF-295 CNS, 14.6 µM; with MDA-MB-435, 5.78 µM; with HL-60(TB) leukemia, 4.98 µM; in the test on HT29 colon, 9.11 µM; with IGROV1 ovarian, 12.1 µM. The GI50 was 13.3 µM in the test with HOP-62 NSCLC, 11.8 µM in the test with HCT-15 colon, 4.45 µM with MCF7 breast and 10.4 µM in the test with RXF 393 renal. Moreover, the TGI was over 25 µM in the test with UACC-257 melanoma; over 25 µM with SF-295 CNS; 18.8 µM in the test with MDA-MB-435; 18.5 µM in the test on HL-60(TB) leukemia; over 25 µM in the test on HT29 colon; over 25 µM in the test with IGROV1 ovarian. The TGI was over 25 µM with HOP-62 NSCLC, over 25 µM in the test with HCT-15 colon, over 7.9 µM in the test on MCF7 breast and over 25 µM in the test with RXF 393 renal.

As to `CCc1ccc2c(c1)C(=O)c1c-2n(CCCN=[N+]=[N-])c(=O)c2cc(OC)c(OC)cc12`, the GI50 was over 100 µM with UACC-257 melanoma; 56.1 µM in the test on SF-295 CNS; over 100 µM in the test on MDA-MB-435; over 100 µM in the test with HL-60(TB) leukemia; over 100 µM in the test with HT29 colon; 53.4 µM in the test with IGROV1 ovarian. Further, the GI50 with HOP-62 NSCLC is 56.2 µM; in the test with HCT-15 colon it was over 100 µM; with MCF7 breast, 91.7 µM; in the test with RXF 393 renal, 29.9 µM. The TGI in the test on UACC-257 melanoma, with SF-295 CNS, with MDA-MB-435, in the test on HL-60(TB) leukemia, in the test on HT29 colon and in the test on IGROV1 ovarian was over 100 µM in each case. The TGI in the test with HOP-62 NSCLC, with HCT-15 colon, in the test with MCF7 breast and with RXF 393 renal was over 100 µM throughout.
